Test system: RS4;11 cells
Experiment: Cell viability assay (CellTiter-Glo) in RS4;11 cells
Format: cell-based
Conditions: Homo sapiens, 72 h; RS4;11 cells; cell viability, 3 days, CellTiter-Glo; read-out: IC50
Protocol: Specific exemplary heterobifunctional compounds were first characterized using cell viability assays. RS4;11 ALL cells were treated with bifunctional degraders for three days. The IC50 values ranged from 2 nM to over 10 uM.
MV4;11, RS4;11, Kasumi-1, HEL and other cells were treated with NVP-BSK805, TG101209 or selected degraders for 3 days at indicated concentrations following a 3-fold serial dilution.
HEL, RS4;11, MV4;11, Kasumi-1 and other cells were cultured at 37° C. with 5% CO2 in RPMI 1640 or DMEM Medium supplemented with 10% fetal bovine serum. Cells were authenticated using the short tandem repeat (STR) assays. Mycoplasma test results were negative.
Cells were seeded at a density of 5000 cells per well in 96-well assay plates and treated with test compounds following a 8-point or 12-point 3-fold serial dilution. Three days later, cell viability was determined using the CellTiter-Glo assay kit according to the manufacturer's instructions. The dose-response curves were determined and IC50 values were calculated using the GraphPad Prism software following a nonlinear regression (least squares fit) method.

Cc1ncsc1-c1ccc(CNC(=O)[C@@H]2C[C@@H](O)CN2C(=O)[C@@H](NC(=O)CCOCCOCCOCCOCCOCCNC(=O)CN2CCN(c3ccc(Nc4nc5cccc(-c6ccc(S(C)(=O)=O)cc6)n5n4)cc3)CC2)C(C)(C)C)cc1 [JA-138, (2S,4R)-1-((S)-23-(tert-Butyl)-1-(4-(4-((5-(4-(methylsulfonyl)phenyl)-[1,2,4]triazolo[1,5-a]pyridin-2-yl)amino)phenyl)piperazin-1-yl)-2,21-dioxo-6,9,12,15,18-pentaoxa-3,22-diazatetracosan-24-oyl)-4-hydroxy-N-(4-(4-methylthiazol-5-yl)benzyl)pyrrolidine-2-carboxamide] and Cc1cnc(Nc2ccc(N3CCN(CC(=O)NCCOCCOCCOCCOCCC(=O)NC(C(=O)N4C[C@H](O)C[C@H]4C(=O)NCc4ccc(-c5scnc5C)cc4)C(C)(C)C)CC3)cc2)nc1Nc1cccc(S(=O)(=O)NC(C)(C)C)c1 (stereo in doubt) [JA-222, (2S,4R)-1-((S)-20-(tert-butyl)-1-(4-(4-((4-((3-(N-(tert-butyl)sulfamoyl)phenyl)amino)-5-methylpyrimidin-2-yl)amino)phenyl)piperazin-1-yl)-2,18-dioxo-6,9,12,15-tetraoxa-3,19-diazahenicosan-21-oyl)-4-hydroxy-N-(4-(4-methylthiazol-5-yl)benzyl)pyrrolidine-2-carboxamide] cannot be ordered by IC50: greater than 10 µM for the first, greater than 10 µM for the second.

O=C1CCC(n2c(=O)n(CCCCCC(=O)N3CCC(n4cc(-c5cnc6cccc(-c7cc(F)c(CN8CCOCC8)c(F)c7)c6n5)cn4)CC3)c3ccccc32)C(=O)N1 (stereo not shown) [JA-278, 3-(3-(6-(4-(4-(8-(3,5-Difluoro-4-(morpholinomethyl)phenyl)quinoxalin-2-yl)-1H-pyrazol-1-yl)piperidin-1-yl)-6-oxohexyl)-2-oxo-2,3-dihydro-1H-benzo[d]imidazol-1-yl)piperidine-2,6-dione] and Cn1c(=O)n(C2CCC(=O)NC2=O)c2ccc(NCCCCC(=O)N3CCC(n4cc(-c5cnc6cccc(-c7cc(F)c(CN8CCOCC8)c(F)c7)c6n5)cn4)CC3)cc21 (stereo not shown) [JA-287, 3-(5-((5-(4-(4-(8-(3,5-Difluoro-4-(morpholinomethyl)phenyl)quinoxalin-2-yl)-1H-pyrazol-1-yl)piperidin-1-yl)-5-oxopentyl)amino)-3-methyl-2-oxo-2,3-dihydro-1H-benzo[d]imidazol-1-yl)piperidine-2,6-dione] cannot be ordered by IC50: greater than 0.5 µM for the first, greater than 0.5 µM for the second.

First: O=C1CCC(N2Cc3cc(C#CCCCCC(=O)N4CCC(n5cc(-c6cnc7cccc(-c8cc(F)c(CN9CCOCC9)c(F)c8)c7n6)cn5)CC4)ccc3C2=O)C(=O)N1 (stereo not shown) [JA-271, 3-(5-(7-(4-(4-(8-(3,5-Difluoro-4-(morpholinomethyl)phenyl)quinoxalin-2-yl)-1H-pyrazol-1-yl)piperidin-1-yl)-7-oxohept-1-yn-1-yl)-1-oxoisoindolin-2-yl)piperidine-2,6-dione]
Second: Cc1ncsc1-c1ccc(CNC(=O)[C@@H]2C[C@@H](O)CN2C(=O)[C@@H](NC(=O)CCOCCOCCOCCNC(=O)CN2CCC(n3cc(-c4cnc5cccc(-c6cc(F)c(CN7CCOCC7)c(F)c6)c5n4)cn3)CC2)C(C)(C)C)cc1 [JA-151, (2S,4R)-1-((S)-17-(tert-Butyl)-1-(4-(4-(8-(3,5-difluoro-4-(morpholinomethyl)phenyl)quinoxalin-2-yl)-1H-pyrazol-1-yl)piperidin-1-yl)-2,15-dioxo-6,9,12-trioxa-3,16-diazaoctadecan-18-oyl)-4-hydroxy-N-(4-(4-methylthiazol-5-yl)benzyl)pyrrolidine-2-carboxamide]
The IC50 of the first is lower: 0.157 µM for the first, greater than 10 µM for the second.

CS(=O)(=O)c1ccc(-c2cccc3nc(Nc4ccc(N5CCN(C(=O)CCOCCOCCOCCOCCNc6ccc7c(c6)C(=O)N(C6CCC(=O)NC6=O)C7=O)CC5)cc4)nn23)cc1 (stereo not shown) [JA-197, 2-(2,6-Dioxopiperidin-3-yl)-5-((15-(4-(4-((5-(4-(methylsulfonyl)phenyl)-[1,2,4]triazolo[1,5-a]pyridin-2-yl)amino)phenyl)piperazin-1-yl)-15-oxo-3,6,9,12-tetraoxapentadecyl)amino)isoindoline-1,3-dione] was tested, and the IC50 was 5.55 µM.
